Literature values as cited in patent US11136251B2, “Compositions, methods, and devices for capturing phosphate from water” (REGENTS OF THE UNIVERSITY OF MINNESOTA, priority 2017, dated 2021).

- selectivity for HPO4^2− over HCO3^− / bicarbonate binding: two-fold
Compound: O=C([O-])CN(CCN(CC(=O)[O-])CC(=O)O)CCN(CC(=O)[O-])CC(=O)O.[Gd+3] [Gd-DTPA]
